Results reported in PubChem BioAssay (NCI).
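The compound was tested at five concentrations on cells cultured in 96-well plates, with a 48-hour exposure period. GI50 marks 50% less growth. Definition used: TGI = concentration required for complete inhibition of growth.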

Key:
Assay in all cases: NCI anticancer screen, dose series, 48 h
MALME-3M melanoma = tested on: MALME-3M melanoma
TK-10 renal = tested on: TK-10 renal
SF-268 CNS = tested on: SF-268 CNS
UACC-62 melanoma = tested on: UACC-62 melanoma
RPMI-8226 leukemia = tested on: RPMI-8226 leukemia
MCF7 breast = tested on: MCF7 breast
NCI/ADR-RES ovarian = tested on: NCI/ADR-RES ovarian
T-47D breast = tested on: T-47D breast
MDA-MB-435 = tested on: MDA-MB-435
MDA-MB-468 breast = tested on: MDA-MB-468 breast
HOP-62 NSCLC = tested on: HOP-62 NSCLC
LOX IMVI melanoma = tested on: LOX IMVI melanoma
CCRF-CEM leukemia = tested on: CCRF-CEM leukemia
HS 578T breast = tested on: HS 578T breast
SF-295 CNS = tested on: SF-295 CNS
IGROV1 ovarian = tested on: IGROV1 ovarian
PC-3 prostate = tested on: PC-3 prostate
HCT-15 colon = tested on: HCT-15 colon
SK-MEL-2 melanoma = tested on: SK-MEL-2 melanoma
MOLT-4 leukemia = tested on: MOLT-4 leukemia
NCI-H23 lung = tested on: NCI-H23 lung
HT29 colon = tested on: HT29 colon
OVCAR-8 ovarian = tested on: OVCAR-8 ovarian
DU-145 prostate = tested on: DU-145 prostate
SK-OV-3 ovarian = tested on: SK-OV-3 ovarian
SR leukemia = tested on: SR leukemia
MDA-MB-231 breast = tested on: MDA-MB-231 breast
SW-620 colon = tested on: SW-620 colon
HCC-2998 colon = tested on: HCC-2998 colon
RXF 393 renal = tested on: RXF 393 renal
UACC-257 melanoma = tested on: UACC-257 melanoma
SK-MEL-5 melanoma = tested on: SK-MEL-5 melanoma
EKVX NSCLC = tested on: EKVX NSCLC
HOP-92 NSCLC = tested on: HOP-92 NSCLC
NCI-H460 lung = tested on: NCI-H460 lung
M14 melanoma = tested on: M14 melanoma
UO-31 renal = tested on: UO-31 renal
SNB-19 CNS = tested on: SNB-19 CNS
KM12 colon = tested on: KM12 colon
HL-60(TB) leukemia = tested on: HL-60(TB) leukemia
K-562 leukemia = tested on: K-562 leukemia
HCT-116 colon = tested on: HCT-116 colon
BT-549 breast = tested on: BT-549 breast
OVCAR-5 ovarian = tested on: OVCAR-5 ovarian
OVCAR-3 ovarian = tested on: OVCAR-3 ovarian
CAKI-1 renal = tested on: CAKI-1 renal
SK-MEL-28 melanoma = tested on: SK-MEL-28 melanoma
COLO 205 colon = tested on: COLO 205 colon
U251 CNS = tested on: U251 CNS
SNB-75 CNS = tested on: SNB-75 CNS
A549 NSCLC = tested on: A549 NSCLC
OVCAR-4 ovarian = tested on: OVCAR-4 ovarian
SN12C renal = tested on: SN12C renal
A498 renal = tested on: A498 renal
NCI-H522 lung = tested on: NCI-H522 lung
ACHN renal = tested on: ACHN renal
786-0 renal = tested on: 786-0 renal
SF-539 CNS = tested on: SF-539 CNS
NCI-H226 lung = tested on: NCI-H226 lung

COc1cccc(/C=N/NC(=O)c2ccc3nc(-c4ccc(Cl)cc4)[nH]c3c2)c1O
GI50 (MALME-3M melanoma): 1360 nM
TGI (MALME-3M melanoma): 2890 nM
GI50 (TK-10 renal): 4070 nM
TGI (TK-10 renal): 15900 nM
GI50 (SF-268 CNS): 484 nM
TGI (SF-268 CNS): 1520 nM
GI50 (UACC-62 melanoma): 607 nM
TGI (UACC-62 melanoma): 1770 nM
GI50 (RPMI-8226 leukemia): 2220 nM
TGI (RPMI-8226 leukemia): 5540 nM
GI50 (MCF7 breast): 660 nM
TGI (MCF7 breast): 3380 nM
GI50 (NCI/ADR-RES ovarian): > 100000 nM
TGI (NCI/ADR-RES ovarian): > 100000 nM
GI50 (T-47D breast): 389 nM
TGI (T-47D breast): 2010 nM
GI50 (MDA-MB-435): 1010 nM
TGI (MDA-MB-435): 2830 nM
GI50 (MDA-MB-468 breast): 611 nM
TGI (MDA-MB-468 breast): 1450 nM
GI50 (HOP-62 NSCLC): 570 nM
TGI (HOP-62 NSCLC): 1850 nM
GI50 (LOX IMVI melanoma): 1180 nM
TGI (LOX IMVI melanoma): 2530 nM
GI50 (CCRF-CEM leukemia): 425 nM
TGI (CCRF-CEM leukemia): 3770 nM
GI50 (HS 578T breast): 705 nM
TGI (HS 578T breast): 2900 nM
GI50 (SF-295 CNS): 2200 nM
TGI (SF-295 CNS): 5460 nM
GI50 (IGROV1 ovarian): 1250 nM
TGI (IGROV1 ovarian): 3140 nM
GI50 (PC-3 prostate): 1350 nM
TGI (PC-3 prostate): 4670 nM
GI50 (HCT-15 colon): 1310 nM
TGI (HCT-15 colon): > 40000 nM
GI50 (SK-MEL-2 melanoma): 378 nM
TGI (SK-MEL-2 melanoma): 1490 nM
GI50 (MOLT-4 leukemia): 421 nM
TGI (MOLT-4 leukemia): 2460 nM
GI50 (NCI-H23 lung): 525 nM
TGI (NCI-H23 lung): 1540 nM
GI50 (HT29 colon): 4170 nM
TGI (HT29 colon): 19300 nM
GI50 (OVCAR-8 ovarian): 1580 nM
TGI (OVCAR-8 ovarian): 4390 nM
GI50 (DU-145 prostate): 1340 nM
TGI (DU-145 prostate): 3280 nM
GI50 (SK-OV-3 ovarian): 1030 nM
TGI (SK-OV-3 ovarian): 2790 nM
GI50 (SR leukemia): 369 nM
TGI (SR leukemia): 3750 nM
GI50 (MDA-MB-231 breast): 988 nM
TGI (MDA-MB-231 breast): 3150 nM
GI50 (SW-620 colon): 1320 nM
TGI (SW-620 colon): 3520 nM
GI50 (HCC-2998 colon): 800 nM
TGI (HCC-2998 colon): 2200 nM
GI50 (RXF 393 renal): 972 nM
TGI (RXF 393 renal): 2460 nM
GI50 (UACC-257 melanoma): 1190 nM
TGI (UACC-257 melanoma): 3530 nM
GI50 (SK-MEL-5 melanoma): 772 nM
TGI (SK-MEL-5 melanoma): 2090 nM
GI50 (EKVX NSCLC): 2120 nM
TGI (EKVX NSCLC): 9800 nM
GI50 (HOP-92 NSCLC): 670 nM
TGI (HOP-92 NSCLC): 2400 nM
GI50 (NCI-H460 lung): 1340 nM
TGI (NCI-H460 lung): 2770 nM
GI50 (M14 melanoma): 1010 nM
TGI (M14 melanoma): 4280 nM
GI50 (UO-31 renal): 1010 nM
TGI (UO-31 renal): > 48000 nM
GI50 (SNB-19 CNS): 1310 nM
TGI (SNB-19 CNS): 2590 nM
GI50 (KM12 colon): 715 nM
TGI (KM12 colon): 1880 nM
GI50 (HL-60(TB) leukemia): 1070 nM
TGI (HL-60(TB) leukemia): 4630 nM
GI50 (K-562 leukemia): 332 nM
GI50 (HCT-116 colon): 1190 nM
TGI (HCT-116 colon): 2570 nM
GI50 (BT-549 breast): 673 nM
TGI (BT-549 breast): 1790 nM
GI50 (OVCAR-5 ovarian): 1850 nM
TGI (OVCAR-5 ovarian): 5080 nM
GI50 (OVCAR-3 ovarian): 353 nM
TGI (OVCAR-3 ovarian): 1050 nM
GI50 (CAKI-1 renal): 1010 nM
TGI (CAKI-1 renal): 3510 nM
GI50 (SK-MEL-28 melanoma): 1000 nM
TGI (SK-MEL-28 melanoma): 2930 nM
GI50 (COLO 205 colon): 1580 nM
TGI (COLO 205 colon): 3560 nM
GI50 (U251 CNS): 1500 nM
TGI (U251 CNS): 3080 nM
GI50 (SNB-75 CNS): 231 nM
TGI (SNB-75 CNS): 1380 nM
GI50 (A549 NSCLC): 3680 nM
TGI (A549 NSCLC): 14800 nM
GI50 (OVCAR-4 ovarian): 728 nM
TGI (OVCAR-4 ovarian): 3180 nM
GI50 (SN12C renal): 1080 nM
TGI (SN12C renal): 2590 nM
GI50 (A498 renal): 5000 nM
TGI (A498 renal): 11900 nM
GI50 (NCI-H522 lung): 1170 nM
TGI (NCI-H522 lung): 2810 nM
GI50 (ACHN renal): 1320 nM
TGI (ACHN renal): 6250 nM
GI50 (786-0 renal): 1060 nM
TGI (786-0 renal): 2520 nM
GI50 (SF-539 CNS): 428 nM
TGI (SF-539 CNS): 1020 nM
GI50 (NCI-H226 lung): 1650 nM
TGI (NCI-H226 lung): 4000 nM

Oc1ccc(CSc2nnc(-c3ccncc3)n2-c2ccccc2)c2cccnc12
GI50 (MDA-MB-468 breast): 1350 nM
TGI (MDA-MB-468 breast): 16100 nM

O=C(/C=C/c1ccccc1)c1c[nH]c2ccccc2c1=O
GI50 (MDA-MB-468 breast): 1800 nM
TGI (MDA-MB-468 breast): 4410 nM

CN1CCN(c2ccc(-c3ccc4ncc(C#N)c(Nc5ccc(F)c(Cl)c5)c4c3)cc2)CC1
GI50 (MDA-MB-468 breast): 431 nM
TGI (MDA-MB-468 breast): 2100 nM

COc1cc(/C=N/Nc2ncnc3c2cnn3C(C)C)ccc1O
GI50 (MDA-MB-468 breast): 9320 nM
TGI (MDA-MB-468 breast): 24600 nM

CCCCN(CCCC)c1ccc(C(=N)c2ccc(N(C)C)cc2)cc1
GI50 (MDA-MB-468 breast): 249 nM
TGI (MDA-MB-468 breast): 966 nM

COc1cccc(C(=O)Nc2ccc(CN3CCc4nc5cc(OC)c(OC)cc5cc43)cc2)c1
GI50 (MDA-MB-468 breast): 4010 nM
TGI (MDA-MB-468 breast): 31900 nM

CN1CCN(CCCOc2cccc3nc(Nc4ccc(Cl)c(F)c4)ccc23)CC1
GI50 (MDA-MB-468 breast): 1720 nM
TGI (MDA-MB-468 breast): 3320 nM

Cc1cc(N2CCN(C)CC2)nc(NCc2cc(Nc3ccnc4cc(Cl)ccc34)ccc2F)n1
GI50 (MDA-MB-468 breast): 1670 nM
TGI (MDA-MB-468 breast): 3590 nM

Oc1c(C(Nc2cccc3ccccc23)c2ccccc2)ccc2cccnc12 (stereo unspecified)
GI50 (MDA-MB-468 breast): 1790 nM
TGI (MDA-MB-468 breast): 4310 nM

COc1ccc(Cl)cc1Nc1nc(C(F)(F)F)ccc1C(=O)N/N=C/c1ccc([N+](=O)[O-])cc1
GI50 (MDA-MB-468 breast): 1130 nM
TGI (MDA-MB-468 breast): 3680 nM

COc1ccc2c(c1)[C@]1(C[C@H]1c1ccc3c(/C=C/c4ccc(CN5C[C@@H](C)O[C@@H](C)C5)cc4)n[nH]c3c1)C(=O)N2
GI50 (MDA-MB-468 breast): 2990 nM
TGI (MDA-MB-468 breast): > 92400 nM

O=C(Nc1ccc(F)cc1)c1cc(-c2ccc(F)cc2F)ccc1O
GI50 (MDA-MB-468 breast): 2210 nM
TGI (MDA-MB-468 breast): 7480 nM
